Test results as given in PMC7496091, “Small‐Molecule Inhibitors Targeting Sterol 14α‐Demethylase (CYP51): Synthesis, Molecular Modelling and Evaluation Against Candida albicans” (Chemmedchem, 2020).
Read-outs that look alike come from different tables or passages of the source.

Legend:
C. albicans CA14 [1] = experiment: MIC, CLSI M27-S4 broth dilution, strain CA14; type: cell-based, Candida albicans; settings: Candida albicans, CA14, 48 hours
Experimental: Susceptibility testing of C. albicans strains. […] Stock solutions of each agent were prepared in DMSO. […] The final testing concentrations for all compounds ranged from 0.03–16 μg mL^−1.

CaCYP51 [2] = target: T1, CaCYP51 (Candida albicans, UniProt P10613); experiment: biochemical; settings: for IC50: 1 μM CaCYP51, lanosterol as substrate, curve-fitted, read-out: CaCYP51 IC50; for Ki: Morrison equation estimates, read-out: Kapp/i from the inhibition profiles with CaCYP51
T1 construct: made in house; host or cells: Escherichia coli
Experimental: […]. […] […]. CYP51 reconstitution assays. IC50 values were determined for individual azole compounds18, 30 using lanosterol as substrate. Azoles were introduced using 2.5 μL of stock solutions in DMSO. CaCYP51 assays contained 1 μM CaCYP51 and 2 μM Homo sapiens cytochrome P450 reductase (HsCPR – UniProtKB accession number P16435) and were incubated for 20 min at 37 °C. HsCYP51 assays contained 0.25 μM Δ60HsCYP51 and 1 μM HsCPR and were incubated for 10 min at 37 °C. Each IC50 experiment was performed in duplicate.

Δ60HsCYP51 [3] = target: T2, Δ60HsCYP51 (Homo sapiens, UniProt Q16850); experiment: Azole ligand binding titration (type II difference spectra, Kd), Δ60HsCYP51; settings: for Kd: 3 μM native Δ60HsCYP51, mean ± SD (12 c n=6), read-out: K d Δ60HsCYP51 (Hs); for Type of difference binding spectra with Δ60HsCYP51: titration with Δ60HsCYP51
Experimental: Recombinant CYP51 protein studies.
(§1) Dissociation constant (K d). The K d for each CYP51‐azole complex was determined by non‐linear regression (Levenberg‐Marquardt algorithm) using a rearrangement of the Morrison equation for tight ligand binding.34 Where ligand binding was weaker, the Michaelis‐Menten equation was used to fit the data (Figure S5). K d values were determined for each of the three replicate titrations per azole compound and then mean K d values and standard deviations calculated.

C. albicans CA14 [4] = experiment: Sterol profile analysis by GC-MS, strain CA14; type: cell-based, Candida albicans; settings: CA14, % of total sterols, half the MIC (fluconazole 0.06, 5 d 0.06, 5 f 0.015, 12 c 0.5 μg/mL), 18 h
Experimental: (§2) Sterols were then extracted and analysed by GC‐MS and sterol profiles (% of the total sterol extracted) were determined (Table 6).
(§3) Sterol profile analysis of C. albicans strains. […] Cells were pelleted and washed with ddH2O and non‐saponifiable lipids were extracted using methanolic KOH as reported previously.41 Samples were dried in a vacuum centrifuge and were derivatised by the addition of 100 μL 90 % BSTFA / 10 % TMCS (Sigma), 200 μL anhydrous pyridine (Sigma) and heating for 2 h at 80 °C. TMS‐derivatised sterols were analysed and identified by using GC/MS (Thermo 1300 GC coupled to a Thermo ISQ mass spectrometer, Thermo Scientific) with reference to retention times and fragmentation spectra for known standards. GC/MS data files were analysed using Xcalibur software (Thermo Scientific) to determine sterol profiles for all isolates and to integrate peak areas.

C. albicans SC5314 [5] = experiment: Sterol profile analysis by GC-MS, strain SC5314; type: cell-based, Candida albicans; settings: SC5314, % of total sterols, half the MIC (fluconazole 0.06, 5 d 0.06, 5 f 0.015, 12 c 0.5 μg/mL), 18 h
Experimental: as §2, §3

Δ60HsCYP51 [6] = target: T2, Δ60HsCYP51; experiment: CYP51 reconstitution assay (IC50), Δ60HsCYP51; type: biochemical; settings: 0.25 μM Δ60HsCYP51, lanosterol as substrate; read-out: IC50 Δ60HsCYP51 (Hs)
Experimental: CYP51 reconstitution assays. […] Azoles were introduced using 2.5 μL of stock solutions in DMSO. […] Each IC50 experiment was performed in duplicate.

C. albicans SC5314 [7] = experiment: MIC, CLSI M27-S4 broth dilution, strain SC5314; type: cell-based, Candida albicans; settings: Candida albicans, SC5314, 48 hours
Experimental: The susceptibilities of the SC5314 and CA14C. albicans (azole sensitive) strains to all novel azole derivatives (5, 7 and 12) were determined (Table 3) using the standardized CLSI M27‐S4 broth dilution method.28
Susceptibility testing of C. albicans strains. […] Stock solutions of each agent were prepared in DMSO. Further dilutions were made in RPMI‐1640, and the final concentration of DMSO was 1 % (v/v). The final testing concentrations for all compounds ranged from 0.03–16 μg mL^−1.

CaCYP51 [8] = target: T1, CaCYP51; experiment: biochemical; type: binding; settings: 3 μM native CaCYP51, mean of three replicates ± SD; read-out: K d CaCYP51
Text: […]. There were no signs of compound insolubility (visible or rising background absorbance) during the ligand titrations. […] […].
The rearranged Morrison equation34 gave the best fit to the ligand saturation curves against CaCYP51 (Figure 5) indicating the selected compounds bound tightly to the purified CaCYP51 protein in free solution. Likewise the rearranged Morrison equation34 gave the best fit for binding 5 d and 5 f to Δ60HsCYP51, thus indicating tight binding in free solution (Figure 5). […].
Recombinant CYP51 protein studies. […] All azole ligand binding determinations were performed in triplicate, except the binding of compound 12 c with Δ60HsCYP51 which was performed six times. CYP51 protein samples were diluted with 0.1 M Tris⋅HCl (pH 8.1) and 25 % (w/v) glycerol to the required concentration.
as §1

Δ60HsCYP51 [9] = target: T2, Δ60HsCYP51; settings: read-out: K d Δ60HsCYP51 (Hs); cited from earlier work
Δ60HsCYP51 [10] = target: T2, Δ60HsCYP51; settings: cited from earlier work; for IC50: read-out: IC50 Δ60HsCYP51 (Hs), 0.4 μM Δ60HsCYP51 ref 21
CaCYP51 [11] = target: T1, CaCYP51; settings: 1 μM CaCYP51 ref 21; read-out: IC50 CaCYP51 (Ca) (converted); cited from earlier work

T1 sequence (P10613 whole entry): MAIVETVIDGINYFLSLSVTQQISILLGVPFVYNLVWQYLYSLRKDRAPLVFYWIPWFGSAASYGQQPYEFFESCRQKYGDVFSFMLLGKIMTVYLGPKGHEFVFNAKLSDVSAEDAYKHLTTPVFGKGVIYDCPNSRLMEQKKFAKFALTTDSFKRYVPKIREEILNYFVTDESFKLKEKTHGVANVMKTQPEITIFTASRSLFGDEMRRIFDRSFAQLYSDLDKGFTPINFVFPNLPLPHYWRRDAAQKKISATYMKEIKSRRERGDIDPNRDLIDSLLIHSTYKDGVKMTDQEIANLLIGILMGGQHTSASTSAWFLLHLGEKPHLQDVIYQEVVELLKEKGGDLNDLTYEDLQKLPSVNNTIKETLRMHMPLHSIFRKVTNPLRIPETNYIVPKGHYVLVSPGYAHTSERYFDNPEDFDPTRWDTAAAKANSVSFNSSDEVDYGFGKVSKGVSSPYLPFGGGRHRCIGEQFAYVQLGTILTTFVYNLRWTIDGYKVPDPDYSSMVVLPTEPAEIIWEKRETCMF
T2 sequence (Q16850 61-509, stated change not applied): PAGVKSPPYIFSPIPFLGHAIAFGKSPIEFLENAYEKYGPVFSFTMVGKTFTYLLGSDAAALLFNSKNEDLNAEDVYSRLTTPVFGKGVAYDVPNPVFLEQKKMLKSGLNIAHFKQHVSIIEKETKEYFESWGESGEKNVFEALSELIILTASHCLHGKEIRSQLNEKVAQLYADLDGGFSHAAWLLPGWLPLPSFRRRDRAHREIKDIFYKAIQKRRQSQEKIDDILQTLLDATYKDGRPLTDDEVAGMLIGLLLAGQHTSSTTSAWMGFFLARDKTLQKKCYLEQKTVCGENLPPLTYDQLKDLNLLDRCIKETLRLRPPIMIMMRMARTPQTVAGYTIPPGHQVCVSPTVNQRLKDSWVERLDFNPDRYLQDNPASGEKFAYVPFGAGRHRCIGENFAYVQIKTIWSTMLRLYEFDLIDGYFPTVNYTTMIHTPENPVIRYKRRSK
T2 sequence (P16435 2-677, stated change not applied, further chain): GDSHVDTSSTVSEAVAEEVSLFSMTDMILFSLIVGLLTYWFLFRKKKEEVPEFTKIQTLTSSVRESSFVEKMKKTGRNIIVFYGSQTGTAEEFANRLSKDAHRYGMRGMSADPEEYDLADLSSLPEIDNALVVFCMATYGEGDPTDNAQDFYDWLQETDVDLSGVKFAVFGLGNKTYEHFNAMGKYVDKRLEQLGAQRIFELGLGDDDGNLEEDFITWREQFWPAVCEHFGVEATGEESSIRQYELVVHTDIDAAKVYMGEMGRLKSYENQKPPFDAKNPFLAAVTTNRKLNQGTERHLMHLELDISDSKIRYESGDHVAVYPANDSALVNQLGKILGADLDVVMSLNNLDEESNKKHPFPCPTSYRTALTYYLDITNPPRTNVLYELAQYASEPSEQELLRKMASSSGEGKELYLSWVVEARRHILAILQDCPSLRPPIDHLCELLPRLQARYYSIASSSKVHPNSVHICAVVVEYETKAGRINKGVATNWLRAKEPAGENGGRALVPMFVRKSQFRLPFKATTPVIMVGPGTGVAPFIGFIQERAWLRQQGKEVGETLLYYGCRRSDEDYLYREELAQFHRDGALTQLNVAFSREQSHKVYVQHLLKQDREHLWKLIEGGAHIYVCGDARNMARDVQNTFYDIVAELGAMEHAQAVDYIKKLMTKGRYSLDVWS

SMILES	MIC (C. albicans CA14 [1]; 80 % reduction in turbidity)	MIC (C. albicans CA14 [1]; value in brackets)	IC50 (CaCYP51 [2])	Ki (CaCYP51 [2])	Kd (Δ60HsCYP51 [3])	Type of difference binding spectra with Δ60HsCYP51 (Δ60HsCYP51 [3])	Sterol composition: diol (14α‐methyl ergosta‐8,24(28)‐dien‐3,6‐diol) (C. albicans CA14 [4])	Sterol composition: eburicol (C. albicans CA14 [4])	Sterol composition: ergosterol (C. albicans CA14 [4])	Sterol composition: lanosterol (C. albicans CA14 [4])	Sterol composition: total 14α‐methylated sterols (C. albicans CA14 [4])	Sterol composition: diol (14α‐methyl ergosta‐8,24(28)‐dien‐3,6‐diol) (C. albicans SC5314 [5])	Sterol composition: eburicol (C. albicans SC5314 [5])	Sterol composition: ergosterol (C. albicans SC5314 [5])	Sterol composition: lanosterol (C. albicans SC5314 [5])	Sterol composition: total 14α‐methylated sterols (C. albicans SC5314 [5])	IC50 (Δ60HsCYP51 [6])	MIC (C. albicans SC5314 [7]; 80 % reduction in turbidity)	MIC (C. albicans SC5314 [7]; value in brackets)	Kd (CaCYP51 [8])	also measured
O=C(NCc1ccc(Cl)cc1)C(Cn1ccnc1)c1ccc(Cl)cc1 (stereo not drawn) [Compound 5 d, N‐(4‐Chlorobenzyl)‐2‐(4‐chlorophenyl)‐3(1H‐imidazol‐1‐yl)propanamide]	0.125 µg/mL	0.33 µM	390 nM	160 nM	45 ± 13 nM	type II difference binding spectra	8.2±6.0%	26.4±5.0%	7.8±6.5%	40.4±2.2%	90.0%	17.6±7.1%	20.5±4.4%	2.7±2.3%	41.0±5.5%	95.8%	3370 nM	0.125 µg/mL	0.33 µM	17 ± 5 nM	melting point: 160 to 162 °C
O=C(NCc1ccc(Cl)cc1Cl)C(Cn1ccnc1)c1ccc(Cl)cc1 (stereo not drawn) [Compound 5 f, 2‐(4‐Chlorophenyl)‐N‐(2,4‐dichlorobenzyl)‐3‐(1H‐imidazol‐1‐yl)propanamide]	< 0.03 µg/mL	< 0.07 µM	460 nM	200 nM	74 ± 13 nM	type II difference binding spectra	7.5±4.6%	26.1±0.1%	4.3±0.5%	43.6±1.8%	77.2%	11.7±1.4%	21.0±3.3%	9.1±5.5%	38.6±3.6%	89.3%	3730 nM	< 0.03 µg/mL	< 0.07 µM	62 ± 17 nM	melting point: 148 to 150 °C
O=C(NCc1ccc(NS(=O)(=O)c2ccc(Cl)cc2)cc1)C(Cn1cncn1)c1ccccc1 (stereo not drawn) [Compound 12 c, N‐(4‐((4‐chlorophenyl)sulfonamido)benzyl)‐2‐phenyl‐3‐(1H‐1,2,4‐triazol‐1‐yl)propanamide]	1 µg/mL	2.02 µM	330 nM	110 nM	923 ± 509 nM	type II difference binding spectra	9.2±1.2%	22.4±1.1%	3.5±1.3%	43.6±1.5%	93.3%	7.2±5.2%	14.0±3.5%	24.9±5.5%	34.5±2.9%	70.6%	152000 nM	1 µg/mL	2.02 µM	43 ± 18 nM	melting point: 122 to 124 °C
CCC(C)n1ncn(-c2ccc(N3CCN(c4ccc(OCC5COC(Cn6cncn6)(c6ccc(Cl)cc6Cl)O5)cc4)CC3)cc2)c1=O (stereo not drawn) [itraconazole]																					Kd (Δ60HsCYP51 [9]): 92 nM; IC50 (Δ60HsCYP51 [10]): 70000 nM; IC50 (CaCYP51 [11]): 400 nM
CC(=O)N1CCN(c2ccc(OCC3COC(Cn4ccnc4)(c4ccc(Cl)cc4Cl)O3)cc2)CC1 (stereo not drawn) [ketoconazole]																					IC50 (Δ60HsCYP51 [10]): 4500 nM; IC50 (CaCYP51 [11]): 500 nM
O[C@@](Cn1cnnn1)(c1ccc(F)cc1F)C(F)(F)c1ccc(-c2ccc(OCC(F)(F)F)cc2)cn1 [oteseconazole]																					Inhibition of Δ60HsCYP51 activity (Δ60HsCYP51 [10]; at concentrations up to 50 μM ref 31): did not inhibit
